In PMC3938723, “Learning from Host-Defense Peptides: Cationic, Amphipathic Peptoids with Potent Anticancer Activity” (PLoS ONE, 2014):
Non-standard residues stand in square brackets, D forms with d. Residues, ends and D or L forms follow the SMILES beside them. Nspe = C[C@H](NCC(=O)O)c1ccccc1; Nphe = O=C(O)CNCc1ccccc1; Nlys = NCCCCNCC(=O)O

Experiments:
OVCAR3 (ovarian cancer) = assay: MTS cell viability assay, OVCAR3; format: cell-based; details: 72 h
Procedure: (§1) MCF-7, MCF-7/TxT50 and OVCAR-3 (available in ATCC) were kindly provided by Professor Branimir Sikic's lab at Stanford University, and were cultured in McCoy's 5A media (GIBCO) with 10% FBS and antibiotics. Primary dermal fibroblasts were gifts from Lifeline Cell Technology and were cultured <6 passages according to the protocol Lifeline provides. All the cells were cultured in cell incubators (Thermo Scientific) at 37°C with 5% CO2.
(§2) This assay is a colorimetric method for determining the number of viable cells in proliferation. Aliquots of 100 µl media containing 1×10^4 cells were distributed into each well of a 96-well plate (BD Falcon). The following day, when cell density reaches about ∼40% confluency, the cell media were removed and replaced with serial dilutions of peptoid stocks in culturing media. For peptoid dilutions, peptoid stocks were initially diluted in media at 100 µM and then diluted by half in series using a multichannel pipette, and maintained in 100 µl media for each concentration with triple repeats. After peptoid solutions were transferred onto cells in 96-well plates, cells were incubated at 37°C for certain time periods. Then 20 µl of the CellTiter 96 Aqueous Non-Radioactive cell proliferation assay (Promega) reagent which contains a tetrazolium compound, [3-(4,5-dimethylthiazol-2-yl)-5-(3-carboxymethoxyphenyl)-2-(4-sulfophenyl)-2H-tetrazolium, inner salt; MTS(a)], was added to each well and cells were further incubated for 2 h to metabolize. The absorbance of formazan products were measured at 490 nm in a microplate reader (Molecular Devices). Percentage of cell viability = (A -A testblank)/(A control -A blank)×100, where A is the absorbance of the test well and A control the average absorbance of wells with cells not treated with peptoids. A testblank (media, MTS, and diluted peptoids) and A blank (media and MTS) were background absorbances measured in the absence of cells.
(§3) The activity and selectivity of these peptoids against cancer cells were evaluated in vitro. Their cytotoxicity was tested in three cancer cell lines, MCF-7 (human breast cancer), LNCaP (human prostate cancer), and OVCAR-3 (human ovarian cancer). To estimate the selectivity of these peptoids in vitro, hemolytic activities of some peptoids were cited from previously published work (Table 2 **column), and the MRC-5 cell line (human fibroblasts derived from fetal lung tissues) and primary dermal fibroblasts were also tested as normal cell controls. Briefly, cells were treated with peptoids diluted in culturing media for certain time periods, and then cell viability was measured via MTS assays.

MCF-7 (breast cancer) = assay: MTS cell viability assay, MCF-7; format: cell-based; details: 72 h
Procedure: as §1, §2, §3

[1] = Analytical RP-HPLC elution as relative measure of molecular hydrophobicity; format: physicochemical; details: percentage of acetonitrile at elution, analytic RP-HPLC, C18 column, linear water/acetonitrile (0.1% trifluoroacetic acid) gradient 5%-95% acetonitrile over 30 min
Text: Peptoids were synthesized using an ABI 433A peptide synthesizer (Applied Biosystems, Inc.) on Rink amide MBHA resin (EMD Biosciences, Gibbstown, NJ) using the submonomer protocol, [24]. Briefly, the amine on the nascent chain is bromoacetylated or chloroacetylated followed by SN2 displacement of bromide or chloride by a primary amine to form the side chain. Resin-bound peptoids were then exposed to a mixture of trifluoroacetic acid (TFA): triisopropylsilane: water (95∶2.5∶2.5, volume ratio) for 10 minutes to cleave peptoids from the resin. Crude peptoids were purified by reversed-phase high performance liquid chromatography (RP-HPLC) (Waters Corporation) using a C18 column and a linear acetonitrile/water gradient. A final purity >95% as measured by analytical RP-HPLC (Waters Corporation) was achieved, and the identity of each peptoid was confirmed using electrospray ionization mass spectrometry (ESI/MS). Pexiganan was synthesized by standard Fmoc chemistry on an ABI 433A peptide synthesizer ([…]). Unless indicated otherwise, all reagents were purchased from Sigma Aldrich (St. Louis, MO). Among the submonomers used, Nspe was derived from (S)-N-(1-phenylethyl)amine; Npm from benzylamine ([…]); NHis from histamine (2-[4-imidazolyl]ethylamine); NLeu from isobutylamine; NLys from N-tert-butoxycarbonyl-1,4-butanediamine (CNH Technologies, MA). Guanidinylation of NLys was carried out according to the reported procedure. When NHis was used in the peptoid sequence, chloroacetic acid was used. 5(6)-Carboxyfluorescein was used to label the N-terminus of peptoid 1 [28].
Peptoids were utilized herein as a peptidomimetic scaffold to capture the cationic, amphipathic nature of anticancer peptides, as well as to improve molecular stability and to increase chemical diversity. The design of anticancer peptoids were derived from previous antimicrobial peptoids and were further optimized hererin to improve the activity and selectivity of peptoids against anionic membranes, [24], [25]. […] Several novel variants were designed based on peptoid 1 but with different charges, amphipathicity, length, and helicity to change their activity or selectivity. The sequences of these variants, the solvent composition at RP-HPLC elution as a relative measure of molecular hydrophobicity, molecular net charges and their charge-to-length ratio are summarized in Table 1. […] Pexiganan, a clinically-relevant peptide analog of magainin 2 which was developed for topical treatment for diabetic foot infection, and LL-37, the only known human cathelicidin which is a non-selective antimicrobial peptide, were also tested for comparison.

[2] = test system: Primary dermal fibroblast; assay: MTS cell viability assay, primary dermal fibroblasts; format: cell-based; details: for LC50 Primary dermal fibroblast: 72 h
Procedure: as §1, §2, §3

[3] = test system: MRC-5 (fetal lung fibroblast); assay: MTS cell viability assay, MRC-5; format: cell-based; details: 72 h
Procedure: as §1, §2, §3

LNCaP (prostate cancer) = assay: MTS cell viability assay, LNCaP; format: cell-based; details: 72 h
Procedure: as §2, §3

human red blood cells = details: cited from earlier work
Text: Table 2 Peptoid Cytotoxicity in cancer cell lines and control cells. | column: HC10 (µM) ** || The chain length is believed to influence not only the activity but also modes of action of cationic, amphipathic peptides, [34]. […] Thus we limited the chain length of peptoids to 13 residues at most, and studied 1 9mer which has the same charge-to-length ratio (CTLR) as peptoid ...

MCF-7/TxT50 cells = assay: MTS cell viability in multidrug-resistant MCF-7/TxT50 versus MCF-7; format: cell-based, human; details: MTS assay, 72 h treatment
Procedure: as §1
This assay is a colorimetric method for determining the number of viable cells in proliferation. Aliquots of 100 µl media containing 1×10^4 cells were distributed into each well of a 96-well plate (BD Falcon). The following day, when cell density reaches about ∼40% confluency, the cell media were removed and replaced with serial dilutions of peptoid stocks in culturing media. […] The absorbance of formazan products were measured at 490 nm in a microplate reader (Molecular Devices). Percentage of cell viability = (A -A testblank)/(A control -A blank)×100, where A is the absorbance of the test well and A control the average absorbance of wells with cells not treated with peptoids. A testblank (media, MTS, and diluted peptoids) and A blank (media and MTS) were background absorbances measured in the absence of cells. […]
Figure 3 Activity of docetaxel and peptoids in MCF-7 and MCF-7/TxT50 cells. […] Cell viability was measured with MTS assays.

| Structure (SMILES) | LC50 OVCAR3 (ovarian cancer) (OVCAR3 (ovarian cancer)) | LC50 MCF-7 (breast cancer) (MCF-7 (breast cancer)) | HPLC elution [1] | LC50 Primary dermal fibroblast [2] | LC50 MRC-5 (fetal lung fibroblast) [3] | LC50 LNCaP (prostate cancer) (LNCaP (prostate cancer)) | HC10 (human red blood cells) | selectivity ratio ([2]; LC50 in primary dermal fibroblast divided by LC50 in cancer cells) | activity in MCF-7/TxT50 (MDR1 overexpressing) compared to wild-type MCF-7 (MCF-7/TxT50 cells) |
| --- | --- | --- | --- | --- | --- | --- | --- | --- | --- |
| C[C@@H](c1ccccc1)N(CC(=O)N(CCCCN)CC(=O)N(CC(=O)N(CC(=O)N(CCCCN)CC(=O)N(CC(=O)N(CC(=O)N(CCCCN)CC(=O)N(CC(=O)N(CC(=O)N(CCCCN)CC(N)=O)[C@@H](C)c1ccccc1)[C@@H](C)c1ccccc1)[C@@H](C)c1ccccc1)[C@@H](C)c1ccccc1)[C@@H](C)c1ccccc1)[C@@H](C)c1ccccc1)C(=O)CN(C(=O)CNCCCCN)[C@@H](C)c1ccccc1 [1 13mer, H-(NLys-Nspe-Nspe)4-NLys-NH2] (H-[Nlys][Nspe][Nspe][Nlys][Nspe][Nspe][Nlys][Nspe][Nspe][Nlys][Nspe][Nspe][Nlys]-NH2) | 9 µM | 8 µM | 62.8 % ACN | 14 µM | 10 µM | 8 µM | 21 µM | – | – |
| NCCCCNCC(=O)N(CC(=O)N(CC(=O)N(CCCCN)CC(=O)N(CC(=O)N(CC(=O)N(CCCCN)CC(=O)N(CC(=O)N(CC(=O)N(CCCCN)CC(=O)N(CC(=O)N(CC(N)=O)Cc1ccccc1)Cc1ccccc1)Cc1ccccc1)Cc1ccccc1)Cc1ccccc1)Cc1ccccc1)Cc1ccccc1)Cc1ccccc1 [1 achiral, H-(NLys-Npm-Npm)4-NH2] (H-[Nlys][Nphe][Nphe][Nlys][Nphe][Nphe][Nlys][Nphe][Nphe][Nlys][Nphe][Nphe]-NH2) | 16 µM | 13 µM | 59.8 % ACN | 39 µM | 30 µM | 11 µM | 183 µM | ~3 | – |
| C[C@@H](c1ccccc1)N(CC(=O)N(CC(=O)N(CCCCN)CC(=O)N(CC(=O)N(CC(=O)N(CCCCN)CC(=O)N(CC(=O)N(CC(=O)N(CCCCN)CC(=O)N(CC(=O)N(CC(N)=O)Cc1ccccc1)Cc1ccccc1)Cc1ccccc1)Cc1ccccc1)Cc1ccccc1)Cc1ccccc1)Cc1ccccc1)C(=O)CNCCCCN [1 achiral-Nspe2, H-NLys-Nspe-Npm-(NLys-Npm-Npm)3-NH2] (H-[Nlys][Nspe][Nphe][Nlys][Nphe][Nphe][Nlys][Nphe][Nphe][Nlys][Nphe][Nphe]-NH2) | 16 µM | 13 µM | 60.8 % ACN | 36 µM | 22 µM | 11 µM | 160 µM | – | – |
| C[C@@H](c1ccccc1)N(CC(N)=O)C(=O)CN(CCCCN)C(=O)CN(CCCCN)C(=O)CN(C(=O)CN(C(=O)CN(CCCCN)C(=O)CN(C(=O)CN(CCCCN)C(=O)CN(CCCCN)C(=O)CN(C(=O)CN(C(=O)CNCCCCN)[C@@H](C)c1ccccc1)[C@@H](C)c1ccccc1)[C@@H](C)c1ccccc1)[C@@H](C)c1ccccc1)[C@@H](C)c1ccccc1 [1-NLys5,11, H-(NLys-Nspe-Nspe-NLys-NLys-Nspe)2-NH2] (H-[Nlys][Nspe][Nspe][Nlys][Nlys][Nspe][Nlys][Nspe][Nspe][Nlys][Nlys][Nspe]-NH2) | 37 µM | 31 µM | 51.2 % ACN | 34 µM | 41 µM | 25 µM | >100 µM | – | – |
| C[C@@H](c1ccccc1)N(CC(N)=O)C(=O)CN(C(=O)CN(CCCCN)C(=O)CN(Cc1ccccc1)C(=O)CN(Cc1ccccc1)C(=O)CN(CCCCN)C(=O)CN(C(=O)CN(C(=O)CN(CCCCN)C(=O)CN(Cc1ccccc1)C(=O)CN(Cc1ccccc1)C(=O)CNCCCCN)[C@@H](C)c1ccccc1)[C@@H](C)c1ccccc1)[C@@H](C)c1ccccc1 [1-Npm2,3,8,9, H-(NLys-Npm-Npm-NLys-Nspe-Nspe)2-NH2] | 11 µM | 9 µM | 63.3 % ACN | 21 µM | 18 µM | 10 µM | 80 µM | – | – |
| CC(=O)O[C@@]12CO[C@@H]1C[C@H](O)[C@@]1(C)C(=O)[C@H](O)C3=C(C)[C@@H](OC(=O)[C@H](O)[C@@H](NC(=O)OC(C)(C)C)c4ccccc4)C[C@@](O)([C@@H](OC(=O)c4ccccc4)[C@H]21)C3(C)C [Docetaxel] | – | – | – | – | – | – | – | – | resistant |
